# Test results reported in paper PMC12373846, “Hemoglobin as a pseudoperoxidase and drug target for oxidative stress-related diseases” (Signal Transduction and Targeted Therapy, 2025).
# Like-named read-outs stand apart in the source and are kept apart here.
# Assays:
# 97 kinases = assay: KINOMEscan scanEDGE selectivity score; format: binding, human; conditions: 10000 nM
# Procedure: The possibility of KDS12025 on kinase off-target, the KINOMEscan panel of scanEDGE assay was conducted in DiscoverX (CA, USA) using a site-directed competition binding with the test compounds. The assay results are given in Supplementary Table 4 and experimental information is available on the DiscoverX web page (www.discoverx.com). Moreover, the Delta SafetyScreen87 panel assay was conducted in Eurofins Discovery (Cerep, France). The assay results are given in Supplementary Table 5 and experimental information is available on the DiscoverX web page (https://www.eurofinsdiscoveryservices.com).
# [1] = In vivo pharmacokinetics (IV, PO); conditions: male, ICR, mouse, plasma, mice
# Procedure: In vivo pharmacokinetic studies of KDS12025 were conducted by Medicilon (Shanghai, China). For both intravenous (IV) and oral (PO) administration, the compound was dissolved in a vehicle consisting of 10% Solutol and 90% distilled water. Male ICR mice (n = 4 per group) were fasted overnight and allowed access to food 4 h post-dosing, with water provided ad libitum. Following administration, blood samples (0.03 mL per time point) were collected via the submandibular vein. Samples were transferred to tubes containing sodium heparin and centrifuged at 6,800 x g for 6 min at 2–8 °C. Plasma was separated, transferred to Eppendorf tubes, and internal standard (IS: 10 ng/mL verapamil) was added. After vortexing for 1 min and centrifugation at 18,000 x g for 7 min, the supernatant was analyzed by liquid chromatography–tandem mass spectrometry (LC-MS/MS; TQ5500 Triple Quad, SCIEX). Pharmacokinetic parameters including area under the curve (AUC0–t and AUC0–∞), elimination half-life (t1/2), maximum plasma concentration (Cmax), and time to reach maximum concentration (Tmax) were calculated using noncompartmental analysis in Phoenix WinNonlin 7.0 (Pharsight, USA), an FDA-certified pharmacokinetic software.
# aged C57BL/6J mice = assay: Survival of aging mice; format: in vivo, mouse
# Procedure: Aged 1-year-old C57BL/6J animals were purchased from Janvier Labs (France) and quarantined in the IBS Animal Facility for 2 weeks before the experiment. The animals were weighed, and their water consumption (in grams) was monitored for 3 days before the appropriate drug concentration was calculated for each dose group. The animals were randomly assigned to the drug/control and dose groups. […] The drug concentration (in water) was modified on the basis of changes in animal weight and corresponding water consumption every 3 months. Basal body temperature and body weight were monitored every 2 weeks. The care and handling of the animals were performed in accordance with the guidelines of the Institutional Animal Care and Use Committee of IBS (Daejeon, South Korea).
# APP/PS1 mice = assay: Hippocampal slice electrophysiology, APP/PS1 mice; format: in vivo, mouse; conditions: for tonic GABA current, granule cells: Fig. S10k; for sIPSC amplitude: Fig. S10l; for sIPSC frequency: Fig. S10m
# Procedure: The mice were deeply anesthetized with 3% isoflurane followed by decapitation. The brain was quickly excised from the skull and submerged in a chilled cutting solution that contained 234 mM sucrose, 24 mM NaHCO3, 11 mM d(+)-glucose, 10 mM MgSO4, 2.5 mM KCl, […], and 0.5 mM CaCl2. Transverse hippocampi (300 µm thick) were prepared with a vibrating microtome (PRO7N; DSK) and transferred to an artificial cerebrospinal fluid (aCSF) solution that contained 130 mM NaCl, 24 mM NaHCO3, 1.25 mM NaH2PO4, 3.5 mM KCl, 1.5 mM CaCl2, 1.5 mM MgCl2, and 10 mM d(+)-glucose, pH 7.4. The slices were incubated at RT for at least 1 h before recording. All the solutions were saturated with 95% O2 and 5% CO2.
# For recording of tonic GABA currents, slices were transferred to a recording chamber that was mounted on an upright Zeiss microscope and continuously perfused with aCSF solution. The slice was viewed with a 60× water immersion objective (numerical aperture = […]) with infrared differential interference contrast optics. […] Cellular morphology was visualized by a CMOS camera (Hamamatsu Photonics, Japan) and Imaging Workbench software (INDEC Biosystems). Whole-cell patch recordings were made from […] DG granule cells of the hippocampus. The holding potential was -70 mV. The pipette resistance was typically 6–8 MΩ, and the pipette was filled with an internal solution that contained (in mM): 135 CsCl; 4 NaCl; 0.5 CaCl2; 10 HEPES; 5 EGTA; 2 Mg-ATP; 0.5 Na2-GTP; 10 QX-314; pH adjusted to 7.2 with CsOH (278 to 285 mOsmol). The baseline current before the tonic current was measured was recorded with CNQX (20 µM) and D-AP5 (50 µM). The frequency and amplitude of spontaneous inhibitory postsynaptic currents before bicuculline (50 µM) administration were detected and measured via Mini Analysis (Synaptosoft, USA).
# Dentate granule cell synaptic responses were elicited at a low frequency of 0.1 Hz by stimulating perforant path fibers. The stimulation was delivered over […] at intensities ranging from 0 to 1000 μA using a constant current isolation unit. A tungsten bipolar electrode was positioned in the molecular layer to stimulate the perforant path fibers. Recordings of the evoked excitatory postsynaptic potentials (EPSPs) […], and the pipette was filled with an internal solution that contained the following (in mM): 120 potassium gluconate; 10 KCl; 1 MgCl2; 0.5 EGTA; 40 HEPES; pH adjusted to 7.2 with KOH. The spiking probability was determined by the number of spikes generated per total stimulation. Electrical signals were digitized and sampled at […] with the Digidata 1550B data acquisition system and the Multiclamp 700B Amplifier (Molecular Devices, USA) via pClamp software.
smiles,measurement,setting,value
"CNc1ccc(NCCc2ccccc2OC)cc1.Cl [KDS12025, N^1-(2-methoxyphenethyl)-N^4-methylbenzene-1,4-diamine hydrochloride salt]","Number of Hits, S(1)",97 kinases,0
same,"Number of Hits, S(10)",97 kinases,0
same,"Number of Hits, S(35)",97 kinases,0
same,bioavailability,"[1]; 5 mg/kg IV and 30 mg/kg PO, read-out: F (bioavailability)",87.4%
same,AUC,"[1]; 5 mg/kg IV, read-out: AUCall, IV",687 ± 118 ng·h/mL
same,half-life,"[1]; 5 mg/kg IV, read-out: t1/2, IV (converted)",57.6 ± 5.4 min
same,AUC,"[1]; 30 mg/kg PO, read-out: AUCall, PO",3600 ± 662 ng·h/mL
same,Cmax,"[1]; cell spans IV and PO heads, probably 30 mg/kg PO",2310 ± 344 ng/mL
same,increase of median survival,aged C57BL/6J mice; 0.1 and 1 mg/kg/day ad libitum from 14 months,~ 14%
same,adverse effects during chronic administration,"aged C57BL/6J mice; 22-month administration, 0.1 and 1 mg/kg/day",no apparent adverse effects were observed
same,female mice surviving at 31 months,"aged C57BL/6J mice; KDS12025 groups, when all control mice had died",46.7%
same,"tonic GABA current, granule cells",APP/PS1 mice; 3mpk i.p.,4.160±0.8926
same,sIPSC amplitude,APP/PS1 mice; 3mpk i.p.,36.09±4.601
same,sIPSC frequency,APP/PS1 mice; 3mpk i.p.,1.355±0.2694
same,"tonic GABA current, granule cells",APP/PS1 mice; 10mpk i.p.,3.113±0.7279
same,sIPSC amplitude,APP/PS1 mice; 10mpk i.p.,26.02±1.734
same,sIPSC frequency,APP/PS1 mice; 10mpk i.p.,1.177±0.5985
same,spike probability across stimulation intensities,"APP/PS1 mice; 100–1000 μA, 3 mg/kg/day ad libitum, Fig. 5l left",0.7455±0.1216
